For 44 molecules, fungicidal action and Mortality in % results are on record in patent USRE37839E1, “O-benzyloxime ethers and crop protection agents containing these compounds” (BASF Aktiengesellschaft, priority 1990, dated 2002).

For series [1], the system named is brown rust (Puccinia recondita). Kind of series: Action on wheat brown rust. It is filed as in vivo, Puccinia recondita on wheat seedlings ("Kanzler"). The note with it: 0.025 wt % spray liquors; sprayed 24 h after infection; assessed after 8 days. As to the method:
Leaves of pot-grown wheat seedlings of the “Kanzler” variety were dusted with spores of brown rust (Puccinia recondita). The pots were then placed for 24 hours at 20° to 22° C. in a high-humidity (90-95%) chamber. During this period the spores germinated and the germ tubes penetrated the leaf tissue. […] After the sprayed-on layer had dried, the plants were set up in the greenhouse at 20° to 22° C. and a relative humidity of 65 to 70%. The extent of rust fungus spread on the leaves was assessed after 8 days.

The subject of the next series is Plasmopara viticola. The series is described as follows: Action on Peronospora in grapes. The note with it: 0.025 wt % spray liquors; leaves infected 8 days after spraying.
A further series concerns Pyricularia oryzae. The class given is in vivo, Pyricularia oryzae on rice seedlings ("Bahia"). To be noted: 0.05 wt % spray liquors; protective, inoculated 24 hours after spraying; assessed after 6 days.
The subject of series [2] is Plutella maculipennis (diamondback moth). The series is described as follows: Plutella maculipennis (diamondback moth); ingestion-inhibiting action. It is filed as in vivo. To be noted: Plutella maculipennis 4th-stage caterpillars on dipped kohlrabi leaves, after 48 hours. As for the experimental part: Young kohlrabi leaves are dipped for 3 seconds into aqueous solutions of the candidate compounds, and then placed on a round filter paper 9 cm in diameter which has been moistened with 0.5 ml of water. The filter paper is then placed in a Petri dish 10 cm in diameter. 10 caterpillars in the 4th larval stage are then placed on each leaf and the Petri dish is closed. Ingestion inhibition is determined in % after 48 hours.

The test system of series [3] is Musca domestica (housefly). The series is described as follows: Musca domestica (housefly); continuous contact action. It is filed as in vivo. To be noted: continuous contact in Petri dish, counted after 24 hours. As to the method: Both the tops and bottoms of Petri dishes 10 cm in diameter were lined with a total of 1 ml of acetonic solutions of the active ingredients. After the solvent had evaporated (about 30 mins.), 10 files and absorbent cotton steeped in water were introduced into each dish and the dishes closed. The flies in supine position were counted after 24 hours.
If a kill rate of 80 to 100% occurs at a concentration of 0.01 mg/dish, the test is continued with falling concentrations.

Procedure for Plasmopara viticola: Leaves of potted vines of the “Müller Thurgau” variety were sprayed with aqueous liquors containing (dry basis) 80% of active ingredient and 20% of emulsifier. To assess the duration of action of the active ingredients, the plants were, after the sprayed-on layer had dried, set up in the greenhouse for 8 days. Only then were the leaves infected with a zoospore suspension of Plasmopara viticola. The vines were then placed for 48 hours in a water-vapor-saturated chamber at 24° C. and then for 5 days in a greenhouse at from 20° to 30° C. To accelerate the sporangiophore discharge, the plants were then again set up in the moist chamber for 16 hours. The extent to which the leaves had been attacked was then assessed.

Take `COC=C(C(=O)OC)c1ccccc1CON=C(c1ccccc1)C1CC1` [14 (Table I)]: the fungicidal action (in series [1]; in the series with Plasmopara viticola) was 95% each time.

`COC=C(C(=O)OC)c1ccccc1CON=C(c1ccc(Cl)cc1)C1CC1` [16 (Table I)]: the fungicidal action (in series [1]; in the series on Plasmopara viticola) was 95% each time.

With `COC=C(C(=O)OC)c1ccccc1CON=C(c1ccc(OC)cc1)C1CC1` [17 (Table I)], the fungicidal action (in series [1]; in the series on Plasmopara viticola) was 95% each time.

On to `CON=C(C(=O)OC)c1ccccc1CON=C(c1ccc(OC)cc1)C1CC1` [17 (Table II)], for which the fungicidal action in series [1] stood at 95%; in the series with Pyricularia oryzae it was 100%; in the series on Plasmopara viticola, 95%.

For `COC=C(C(=O)OC)c1ccccc1CON=C(C#N)C(C)C` [49 (Table I)], the fungicidal action (in series [1]; in the series on Plasmopara viticola) was 95% throughout.

`COC=C(C(=O)OC)c1ccccc1CON=C(C#N)OC1CCCCO1` (stereo not drawn) [429 (Table I)]: the fungicidal action came to 95% in series [1], 100% in the series on Pyricularia oryzae and 95% with Plasmopara viticola.

On to `COC=C(C(=O)OC)c1ccccc1CON=C(C)c1cccc(C)c1` [616 (Table I)], for which the fungicidal action in series [1] is given as 95%; in the series with Pyricularia oryzae, 100%; in the series on Plasmopara viticola, 95%.

Turning to `CON=C(C(=O)OC)c1ccccc1COc1ccccc1` [A, 2-(phenoxymethyl)-phenylglyoxylic acid-methyl ester-O-methyloxime, reference compound], the fungicidal action (in series [1]; with Plasmopara viticola) was 50% each time.

Take `COC=C(C(=O)OC)c1ccccc1CON=C(c1ccc(F)cc1)C1CC1` [Compound no. 15 (Table I)]: the fungicidal action (in series [1]; in the series on Plasmopara viticola) was 95% each time.

Take `CON=C(C(=O)OC)c1ccccc1CON=C(c1ccc(F)cc1)C1CC1` [Compound no. 15 (Table II)]: the fungicidal action is 100% with Pyricularia oryzae and 95% with Plasmopara viticola.

For the molecule `CON=C(C(=O)OC)c1ccccc1CON=C(c1ccc(Cl)cc1)C1CC1` [Compound no. 16 (Table II)], the fungicidal action is on record as 100% in the series with Pyricularia oryzae and 95% in the series on Plasmopara viticola.

For the molecule `CON=C(C(=O)OC)c1ccccc1CON=C(C#N)C(C)(C)OC` [Compound no. 36 (Table II)], in the series with Plasmopara viticola, the fungicidal action was determined as 95%.

Molecule `CON=C(C(=O)OC)c1ccccc1CON=C(C#N)C(C)(C)SC` [Compound no. 43 (Table II)] had a fungicidal action in the series with Plasmopara viticola of 95%.

Molecule `CON=C(C(=O)OC)c1ccccc1CON=C(C#N)C(C)C` [Compound no. 49 (Table II)] gave a fungicidal action with Plasmopara viticola of 95%.

Regarding `CON=C(C(=O)OC)c1ccccc1CON=C(C#N)C1CC1` [Compound no. 56 (Table II)], the fungicidal action with Plasmopara viticola was determined as 95%.

The molecule `CON=C(C(=O)OC)c1ccccc1CON=C(C#N)c1ccccc1` [Compound no. 117 (Table II)] returned a fungicidal action in the series with Plasmopara viticola of 95%.

The molecule `COC=C(C(=O)OC)c1ccccc1CON=C(C#N)c1ccc(F)c(Cl)c1` [Compound no. 156 (Table I)] displayed a fungicidal action with Plasmopara viticola of 95%.

As for `CON=C(C(=O)OC)c1ccccc1CON=C(C#N)OC1CCCCO1` (stereo not drawn) [Compound no. 429 (Table II)], in the series on Plasmopara viticola, the fungicidal action was 95%.

With `CON=C(C(=O)OC)c1ccccc1CON=C(C)c1ccc(F)cc1` [Compound no. 571 (Table II)], the fungicidal action in the series on Pyricularia oryzae is listed as 100%.

As to `COC=C(C(=O)OC)c1ccccc1CON=C(C)c1ccccc1Cl` [Compound no. 573 (Table I)], the fungicidal action (in series [1]; in the series with Plasmopara viticola) was 95% in each case.

For the molecule `COC=C(C(=O)OC)c1ccccc1CON=C(C)c1ccc(Cl)cc1Cl` [Compound no. 578 (Table I)], the fungicidal action (in series [1]; with Plasmopara viticola) was 95% each time.

For the molecule `COC=C(C(=O)OC)c1ccccc1CON=C(C)c1cc(Cl)ccc1Cl` [Compound no. 579 (Table I)], the fungicidal action in the series with Plasmopara viticola was determined as 95%.

Consider `COC=C(C(=O)OC)c1ccccc1CON=C(C)c1cc(Cl)cc(Cl)c1` [Compound no. 582 (Table I), Methyl 3-methoxy-2-[2′-[1″-(3′″,5′″-dichlorophenyl)-1″-methyl]-iminooxymethyl]-phenylacrylate], for which the fungicidal action (in series [1]; with Plasmopara viticola) was 95% in each case.

Take `CON=C(C(=O)OC)c1ccccc1CON=C(C)c1cc(Cl)cc(Cl)c1` [Compound no. 582 (Table II), Methyl 2-methoximino-2-[2′-(1″-(3′″,5′″-dichlorophenyl)-1″-methyl)-iminooxymethyl]-phenylacetate]: the results for the fungicidal action in the series on Pyricularia oryzae and with Plasmopara viticola were 100% and 95%, respectively.

For the molecule `COC=C(C(=O)OC)c1ccccc1CON=C(C)c1ccc(Cl)c(Cl)c1Cl` [Compound no. 583 (Table I)], the values for the fungicidal action with Pyricularia oryzae and in the series on Plasmopara viticola were 100% and 95%, respectively.

`CON=C(C(=O)OC)c1ccccc1CON=C(C)c1ccc(Cl)c(Cl)c1Cl` [Compound no. 583 (Table II)] gave a fungicidal action with Pyricularia oryzae of 100%.

`COC=C(C(=O)OC)c1ccccc1CON=C(C)c1cccc(Br)c1` [Compound no. 592 (Table I)]: the fungicidal action in series [1] is on record as 95%; in the series on Pyricularia oryzae it was 100%; in the series with Plasmopara viticola, 95%.

As to `CON=C(C(=O)OC)c1ccccc1CON=C(C)c1cccc(Br)c1` [Compound no. 592 (Table II)], in the series on Pyricularia oryzae, the fungicidal action came out at 100%.

As to `COC=C(C(=O)OC)c1ccccc1CON=C(C)c1ccc(Br)cc1` [Compound no. 593 (Table I), Methyl 3-methoxy-2-[2′-(1″-(4′″-bromophenyl)-1″-methyl)-iminooxymethyl]-phenylacrylate], the fungicidal action was 100% in the series with Pyricularia oryzae and 95% in the series on Plasmopara viticola.

`CON=C(C(=O)OC)c1ccccc1CON=C(C)c1ccc([N+](=O)[O-])cc1` [Compound no. 614 (Table II), Methyl 2-methoximino-2-[2′-(1″-(4′″-nitrophenyl)-1″-methyl)-iminooxymethyl]-phenylacetate]: the fungicidal action in the series on Plasmopara viticola was 95%.

In the case of `CON=C(C(=O)OC)c1ccccc1CON=C(C)c1ccc(C(C)(C)C)cc1` [Compound no. 644 (Table II)], the results for the fungicidal action (in series [1]; with Pyricularia oryzae; in the series with Plasmopara viticola) were 95%, 100% and 95%, respectively.

In the case of `COC=C(C(=O)OC)c1ccccc1CON=C(C)c1ccccc1C(F)(F)F` [Compound no. 704 (Table I)], the fungicidal action (in series [1]; with Plasmopara viticola) was 95% in each case.

Consider `COC=C(C(=O)OC)c1ccccc1CON=C(C)c1cccc(C(F)(F)F)c1` [Compound no. 705 (Table I)], for which the fungicidal action (in series [1]; in the series with Plasmopara viticola) was 95% in each case.

`COC=C(C(=O)OC)c1ccccc1CON=C(C)c1ccc(C(F)(F)F)cc1` [Compound no. 706 (Table I)]: the fungicidal action with Pyricularia oryzae was found to be 100%; in the series on Plasmopara viticola it was 95%.

`CON=C(C(=O)OC)c1ccccc1CON=C(C)c1ccc(Oc2ccccc2)cc1` [Compound no. 769 (Table II)]: the fungicidal action in the series with Pyricularia oryzae was 100%.

As for `CON=C(C(=O)OC)c1ccccc1CON=C(C)c1ccc(C2CCCCC2)cc1` [Compound no. 782 (Table II)], the fungicidal action in the series on Pyricularia oryzae is reported as 100%.

In the case of `COC=C(C(=O)OC)c1ccccc1CON=C(c1ccc(Cl)cc1)C1CC1` [compound 16], in series [2] (application rate 400 ppm), the Mortality in % was 80%.

For `COC=C(C(=O)OC)c1ccccc1CON=C(C#N)C(C)(C)OC` [compound 36], the Mortality in % in series [3] (application rate 1.0 ppm) and in series [2] (application rate 200 ppm) was 80% each time.

`CCOC(C)(C)C(C#N)=NOCc1ccccc1C(=COC)C(=O)OC` [compound 37]: in series [3] (application rate 0.1 ppm), the Mortality in % was found to be 100%.

For the molecule `COC=C(C(=O)OC)c1ccccc1CON=C(C#N)C(C)C` [compound 49], the Mortality in % in series [3] (application rate 0.1 ppm) and in series [2] (application rate 200 ppm) was 80% in each case.

`COC=C(C(=O)OC)c1ccccc1CON=C(C#N)OC1CCCCO1` (stereo not drawn) [compound 429] gave a Mortality in % in series [2] (application rate 1000 ppm) of 80%.

For the molecule `COC=C(C(=O)OC)c1ccccc1CON=C(C)c1cc(Cl)cc(Cl)c1` [compound 582], the Mortality in % in series [3] (application rate 0.1 ppm) is 80%; in series [2] (application rate 400 ppm), 100%.

As for `COC=C(C(=O)OC)c1ccccc1CON=C(C)c1cccc(Br)c1` [compound 592], the Mortality in % in series [2] (application rate 400 ppm) stood at 80%.

`COC=C(C(=O)OC)c1ccccc1CON=C(C)c1ccc(Br)cc1` [compound 593]: the Mortality in % in series [3] (application rate 0.1 ppm) came to 60%; in series [2] (application rate 1000 ppm) it was 80%.
